Results reported in ChEMBL document CHEMBL4480368, “Synthesis and potential antineoplastic activity of dehydroabietylamine imidazole derivatives” (Medchemcomm, 2018).
Activity calls are given as the source filed them. No cut-off for these calls is given here.

How the values were obtained:
A549 [1] = experiment: Induction of apoptosis in human A549 cells assessed as increase in apoptotic cells after 24 hrs by Annexin V-FITC/propidium iodide staining based flow cytometry; format: functional, cell-based
A549 [2] = experiment: Induction of apoptosis in human A549 cells assessed as decrease in viable cells after 24 hrs by Annexin V-FITC/propidium iodide staining based flow cytometry; format: functional, cell-based
HeLa = experiment: Antineoplastic activity against human HeLa cells measured after 36 hrs by MTT assay; format: functional, cell-based
MCF7 [3] = experiment: Antineoplastic activity against human MCF7 cells measured after 36 hrs by MTT assay; format: functional, cell-based; settings: MCF7, 36 h
A549 [4] = experiment: Antineoplastic activity against human A549 cells measured after 36 hrs by MTT assay; format: functional, cell-based; settings: A549, 36 h
HUVEC [5] = experiment: Cytotoxicity against HUVEC measured after 36 hrs by MTT assay; format: cell-based; settings: Homo sapiens
HUVEC [6] = experiment: Cytotoxicity against HUVEC; format: cell-based; settings: Homo sapiens
HepG2 = experiment: Antineoplastic activity against human HepG2 cells measured after 36 hrs by MTT assay; format: functional, cell-based; settings: HepG2, 36 h
MCF7 [7] = experiment: Induction of apoptosis in human MCF7 cells assessed as early apoptotic cells at 5 ug/ml after 24 hrs by Annexin V-FITC/propidium iodide staining based flow cytometry (reference value: 2.83%); format: functional
MCF7 [8] = experiment: Induction of apoptosis in human MCF7 cells assessed as early apoptotic cells at 1 ug/ml after 24 hrs by Annexin V-FITC/propidium iodide staining based flow cytometry (reference value: 2.83%); format: functional
MCF7 [9] = experiment: Induction of apoptosis in human MCF7 cells assessed as early apoptotic cells at 0.1 ug/ml after 24 hrs by Annexin V-FITC/propidium iodide staining based flow cytometry (reference value: 2.83%); format: functional
Salmon testes DNA [10] = experiment: Binding affinity to Salmon sperm DNA assessed as hypochromic shift at 5 x 10^-5M by absorption spectra analysis; format: nucleic-acid assay; settings: Salmonidae
MCF7 [11] = experiment: Induction of apoptosis in human MCF7 cells assessed as increase in apoptotic cells after 24 hrs by Annexin V-FITC/propidium iodide staining based flow cytometry; format: functional, cell-based
MCF7 [12] = experiment: Induction of apoptosis in human MCF7 cells assessed as decrease in viable cells after 24 hrs by Annexin V-FITC/propidium iodide staining based flow cytometry; format: functional, cell-based
Salmon testes DNA [13] = experiment: Binding affinity to Salmon sperm DNA assessed as DNA intercalation at 1.5 x 10^-5M by ethidium bromide staining based fluorescence assay; format: nucleic-acid assay; settings: Salmonidae
A549 [14] = experiment: Induction of apoptosis in human A549 cells assessed as early apoptotic cells at 5 ug/ml after 24 hrs by Annexin V-FITC/propidium iodide staining based flow cytometry (reference value: 6.09%); format: functional
A549 [15] = experiment: Induction of apoptosis in human A549 cells assessed as early apoptotic cells at 1 ug/ml after 24 hrs by Annexin V-FITC/propidium iodide staining based flow cytometry (reference value: 6.09%); format: functional
A549 [16] = experiment: Induction of apoptosis in human A549 cells assessed as early apoptotic cells at 2 ug/ml after 24 hrs by Annexin V-FITC/propidium iodide staining based flow cytometry (reference value: 6.09%); format: functional
[17] = Drug internalization in human HeLa cells at 100 nM incubated for 2 hrs at 4 degC by confocal fluorescence imaging analysis; format: ADME, cell-based; settings: 0.1 µM

Structure (SMILES) | IC50 (HeLa) [µM] | IC50 (MCF7 [3]) [µM] | IC50 (A549 [4]) [µM] | IC50 (HUVEC [5]) [µM] | IC50 (HepG2) [µM] | Activity (Salmon testes DNA [10]) | also measured
CC(C)c1ccc2c(c1)CC[C@H]1[C@](C)(CN)CCC[C@]21C.O=C(O)c1nc[nH]c1C(=O)O [listing 1 of 2 here] | – | – | – | – | – | – | Activity (A549 [1]): Dose-dependent effect; Activity (A549 [2]): Dose-dependent effect
COc1cccc2c1C(=O)c1c(O)c3c(c(O)c1C2=O)C[C@@](O)(C(=O)CO)C[C@@H]3O[C@H]1C[C@H](N)[C@H](O)[C@H](C)O1 [DOXORUBICIN] | 3.55 | 14 | 3.35 | 4.4 | – | – | –
O=c1[nH]cc(F)c(=O)[nH]1 [FLUOROURACIL] | – | – | – | – | – | – | IC50 (HUVEC [6]): 11.7 µM
CC(C)c1ccc2c(c1)CC[C@H]1[C@](C)(CN)CCC[C@]21C.CC(C)c1ccc2c(c1)CC[C@H]1[C@](C)(CN)CCC[C@]21C.O=C(O)c1nc[nH]c1C(=O)O [listing 1 of 2 here] | 2.88 | 0.75 | 4.37 | 3.98 | 2.91 | – | Activity (MCF7 [7]): 54.21%; Activity (MCF7 [8]): 39.49%; Activity (MCF7 [9]): 25.4%
CC(C)c1ccc2c(c1)CC[C@H]1[C@](C)(CNC(=O)c3ncn(C)c3C(=O)O)CCC[C@]21C | 16.8 | 12.1 | 12.3 | 33 | 6.52 | Active | –
CC(C)c1ccc2c(c1)CC[C@H]1[C@](C)(CN)CCC[C@]21C.CC(C)c1ccc2c(c1)CC[C@H]1[C@](C)(CN)CCC[C@]21C.O=C(O)c1nc[nH]c1C(=O)O [listing 2 of 2 here] | – | – | – | – | – | Active | Activity (MCF7 [11]): Dose-dependent effect; Activity (MCF7 [12]): Dose-dependent effect; Activity (Salmon testes DNA [13]): Active
CC(C)c1ccc2c(c1)CC[C@H]1[C@](C)(CN)CCC[C@]21C.O=C(O)c1nc[nH]c1C(=O)O [listing 2 of 2 here] | 18.7 | 6.47 | 1.85 | 1.21 | 4.62 | – | Activity (A549 [14]): 76.86%; Activity (A549 [15]): 12.47%; Activity (A549 [16]): 30.64%
CC(C)c1ccc2c(c1)CC[C@H]1[C@](C)(CN)CCC[C@]21C | – | – | – | – | – | – | Drug uptake [17]: Not Active
CC(C)c1ccc2c(c1)CC[C@H]1[C@](C)(CNC(=O)c3ncn(C)c3C(=O)NC[C@]3(C)CCC[C@]4(C)c5ccc(C(C)C)cc5CC[C@@H]34)CCC[C@]21C | 48.5 | 9.85 | 17 | 44.9 | 50.5 | Active | –
CC(C)c1ccc2c(c1)CC[C@H]1[C@](C)(CNC(=O)c3cncn3C)CCC[C@]21C | 20.9 | 2.17 | 53.2 | 57.8 | 12 | Active | –
